From US7446104B2, “Phenylalkynes” (Ortho-McNeil Pharmaceutical, Inc., priority 2001, dated 2008)

Molecular target: T1, human histamine H3 receptor (Homo sapiens, UniProt Q9Y5N1)
T1 construct: One microgram of supercoiled H3 receptor cDNA was added to the cells and mixed; expressed in transfected cells; membranes prepared from cell pellets
Experiment: [3H]-N-methylhistamine binding
Conditions: not given
Procedure: Transfection of Cells with Human Histamine Receptor
A 10 cm tissue culture dish with a confluent monolayer of SK-N-MC cells was split two days prior to transfection. Using sterile technique the media were removed and the cells were detached from the dish by the addition of trypsin. One fifth of the cells were then placed onto a new 10 cm dish. Cells were grown in a 37° C. incubator with 5% CO2 in Minimal Essential Media Eagle with 10% Fetal Bovine Serum. After two days cells were approximately 80% confluent. These were removed from the dish with trypsin and pelleted in a clinical centrifuge. The pellet was then re-suspended in 400 μL complete media and transferred to an electroporation cuvette with a 0.4 cm gap between the electrodes. One microgram of supercoiled H3 receptor cDNA was added to the cells and mixed. The voltage for the electroporation was set at 0.25 kV, the capacitance was set at 960 μF. After electroporation the cells were diluted into 10 mL complete media and plated onto four 10 cm dishes. Because of the variability in the efficiency of electroporation, four different concentrations of cells were plated. The ratios used were; 1:20, 1:10, 1:5, with the remainder of the cells being added to the fourth dish. The cells were allowed to recover for 24 hours before adding the selection media (complete media with 600 μg/mL G418). After 10 days dishes were analyzed for surviving colonies of cells. Dishes with well isolated colonies were used. Cells from individual colonies were isolated and tested. SK-N-MC cells were used because they give efficient coupling for inhibition of adenylate cyclase. The clones that gave the most robust inhibition of adenylate cyclase in response to histamine were used for further study.
[^3H]-N-methylhistamine Binding
Cell pellets from histamine H3 receptor-expressing SK-N-MC cells were homogenized in 20 mM Tris HCl/0.5 mM EDTA. Supernatants from a 800 g spin were collected, recentrifuged at 30,000 g for 30 min. Pellets were re-homogenized in 50 mM Tris/5 mM EDTA (pH 7.4). Membranes were incubated with 0.8 nM [^3H]-N-methylhistamine plus/minus test compounds for 45 min at 25° C. and harvested by rapid filtration over GF/C glass fiber filters (pretreated with 0.3% polyethylenimine) followed by four washes with ice cold buffer. Filters were dried, added to 4 mL scintillation cocktail and then counted on a liquid scintillation counter. Non-specific binding was defined with 10 μM histamine.

T1 sequence (Q9Y5N1 whole entry): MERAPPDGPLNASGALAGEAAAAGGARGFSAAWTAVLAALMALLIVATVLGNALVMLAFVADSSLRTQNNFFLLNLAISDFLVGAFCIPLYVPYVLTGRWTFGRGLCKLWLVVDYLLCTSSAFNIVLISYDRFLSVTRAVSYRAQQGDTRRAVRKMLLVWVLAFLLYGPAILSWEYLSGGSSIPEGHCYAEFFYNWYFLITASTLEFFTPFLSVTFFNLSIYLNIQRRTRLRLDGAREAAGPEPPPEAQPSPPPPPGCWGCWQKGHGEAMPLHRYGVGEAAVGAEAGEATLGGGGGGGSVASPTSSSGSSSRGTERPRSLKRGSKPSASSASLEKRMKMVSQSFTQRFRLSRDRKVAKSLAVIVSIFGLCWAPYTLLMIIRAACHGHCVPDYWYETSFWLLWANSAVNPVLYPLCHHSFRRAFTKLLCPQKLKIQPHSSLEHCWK

Row | Structure (SMILES) | Ki
1 | FC(F)(F)c1cccc(N2CCN(Cc3cccc(C#CCCN4CCCCC4)c3)CC2)c1 [Example 43, 1-[3-(4-Piperidin-1-yl-but-1-ynyl)-benzyl]-4-(3-trifluoromethyl-phenyl)-piperazine] | 91 nM
2 | CN1CCN(Cc2ccc(C#CCCN3CCCCC3)cc2)CC1 [Example 32, 1-Methyl-4-[4-(4-piperidin-1-yl-but-1-ynyl)-benzyl]-piperazine] | 0.7 nM
3 | C(#Cc1ccc(CN2CCN(Cc3ccccc3)CC2)cc1)CCN1CCCCC1 [Example 36, 1-Benzyl-4-[4-(4-piperidin-1-yl-but-1-ynyl)-benzyl]-piperazine] | 9 nM
4 | C(#Cc1cccc(CN2CCCCC2c2cccnc2)c1)CCN1CCCCC1 (stereo not shown) [Example 42, 1-[3-(4-Piperidin-1-yl-but-1-ynyl)-benzyl]-1,2,3,4,5,6-hexahydro-[2,3′]bipyridinyl] | 11 nM
5 | CN(CCc1c[nH]c2ccccc12)Cc1cccc(C#CCCN2CCCCC2)c1 [Example 52, [2-(1H-Indol-3-yl)-ethyl]-methyl-[3-(4-piperidin-1-yl-but-1-ynyl)-benzyl]-amine] | 2 nM
6 | C(#Cc1ccc(CN2CCNCC2)cc1)CCN1CCCCC1 [Example 38, 1-[4-(4-Piperidin-1-yl-but-1-ynyl)-benzyl]-piperazine] | 1.3 nM

Same assay, conditions: membranes of histamine H3 receptor-expressing SK-N-MC cells; 0.8 nM [3H]-N-methylhistamine; 45 min at 25° C.; read-out: Ki

Row | Ki | Structure (SMILES)
7 | 2 nM | NC(=O)C1CCN(Cc2cccc(C#CCCN3CCCCC3)c2)CC1 [Example 45, 1-[3-(4-Piperidin-1-yl-but-1-ynyl)-benzyl]-piperidine-4-carboxylic acid amide]
8 | 1.6 nM | C(#Cc1ccc(CN2CCCCC2)cc1)CCN1CCCCC1 [Example 14, 1-[4-(4-Piperidin-1-ylmethyl-phenyl)-but-3-ynyl]-piperidine]
9 | 0.4 nM | OCCC1CCCCN1Cc1ccc(C#CCCN2CCCCC2)cc1 (stereo not shown) [Example 28, 2-{1-[4-(4-Piperidin-1-yl-but-1-ynyl)-benzyl]-piperidin-2-yl}-ethanol]
10 | 1 nM | C(#Cc1cccc(CN2CCSC2)c1)CCN1CCCCC1 [Example 51, 1-[4-(3-Thiazolidin-3-ylmethyl-phenyl)-but-3-ynyl]-piperidine]
11 | 1 nM | C(#Cc1cccc(CN2CCCC2)c1)CCN1CCCCC1 [Example 55, 1-[4-(3-Pyrrolidin-1-ylmethyl-phenyl)-but-3-ynyl]-piperidine]
12 | 0.5 nM | C(#Cc1ccc(CNC2CCCCC2)cc1)CCN1CCCCC1 [Example 33, Cyclohexyl-[4-(4-piperidin-1-yl-but-1-ynyl)-benzyl]-amine]
13 | 1.8 nM | C(#Cc1ccc(CN2CCC3(CC2)OCCO3)cc1)CCN1CCCCC1 [Example 31, 8-[4-(4-Piperidin-1-yl-but-1-ynyl)-benzyl]-1,4-dioxa-8-aza-spiro[4.5]decane]
14 | 1.1 nM | CCN(CC)Cc1ccc(C#CCCN2CCCCC2)cc1 [Example 25, Diethyl-[4-(4-piperidin-1-yl-but-1-ynyl)-benzyl]-amine]
15 | 9 nM | C(#Cc1cccc(CN2CCN(c3ncccn3)CC2)c1)CCN1CCCCC1 [Example 44, 2-{4-[3-(4-Piperidin-1-yl-but-1-ynyl)-benzyl]-piperazin-1-yl}-pyrimidine]
16 | 6 nM | C(#Cc1ccc(CN2CCCCC2)cc1)CCN1CCSCC1 [Example 20, 4-[4-(4-Piperidin-1-ylmethyl-phenyl)-but-3-ynyl]-thiomorpholine]
17 | 13 nM | C(#Cc1cccc(CN2CCCCCCCCCCCC2)c1)CCN1CCCCC1 [Example 56, 1-[3-(4-Piperidin-1-yl-but-1-ynyl)-benzyl]-azacyclotridecane]
18 | 2.9 nM | C(#Cc1ccc(CN2CCC(Cc3ccccc3)CC2)cc1)CCN1CCCCC1 [Example 26, 1-{4-[4-(4-Benzyl-piperidin-1-ylmethyl)-phenyl]-but-3-ynyl}-piperidine]
19 | 21 nM | CN1CCN(CCC#Cc2ccc(CN3CCCCC3)cc2)CC1 [Example 22, 1-Methyl-4-[4-(4-piperidin-1-ylmethyl-phenyl)-but-3-ynyl]-piperazine]
20 | 15 nM | CC(C)(C)OC(=O)N1CCN(Cc2ccc(C#CCCN3CCCCC3)cc2)CC1 [Example 37, 4-[4-(4-Piperidin-1-yl-but-1-ynyl)-benzyl]-piperazine-1-carboxylic acid tert-butyl ester]
21 | 1.7 nM | OC1CCN(Cc2ccc(C#CCCN3CCCCC3)cc2)CC1 [Example 27, 1-[4-(4-Piperidin-1-yl-but-1-ynyl)-benzyl]-piperidin-4-ol]
22 | 3 nM | COc1ccc(CCN(C)Cc2cccc(C#CCCN3CCCCC3)c2)cc1OC [Example 47, [2-(3,4-Dimethoxy-phenyl)-ethyl]-methyl-[3-(4-piperidin-1-yl-but-1-ynyl)-benzyl]-amine]
23 | 15 nM | C(#Cc1ccc(CN2CCCCC2)cc1)CCN1CCOCC1 [Example 21, 4-[4-(4-Piperidin-1-ylmethyl-phenyl)-but-3-ynyl]-morpholine]

Row | Ki | Structure (SMILES)
24 | 1.4 nM | C(#Cc1ccc(CN2CCCC2)cc1)CCN1CCCCC1 [Example 23, 1-[4-(4-Pyrrolidin-1-ylmethyl-phenyl)-but-3-ynyl]-piperidine]
25 | 4 nM | CN(CCc1ccccn1)Cc1cccc(C#CCCN2CCCCC2)c1 [Example 46, Methyl-[3-(4-piperidin-1-yl-but-1-ynyl)-benzyl]-(2-pyridin-2-yl-ethyl)-amine]
26 | 7 nM | C(#Cc1ccc(CN2CCN(c3ccccc3)CC2)cc1)CCN1CCCCC1 [Example 35, 1-Phenyl-4-[4-(4-piperidin-1-yl-but-1-ynyl)-benzyl]-piperazine]
27 | 110 nM | C(#Cc1cccc(CNc2ccccc2)c1)CCN1CCCCC1 [Example 54, Phenyl-[3-(4-piperidin-1-yl-but-1-ynyl)-benzyl]-amine]
28 | 1.3 nM | C(#Cc1ccc(CNC2CCc3ccccc32)cc1)CCN1CCCCC1 (stereo not shown) [Example 34, Indan-1-yl-[4-(4-piperidin-1-yl-but-1-ynyl)-benzyl]-amine]
29 | 1.6 nM | NC(=O)C1CCN(Cc2ccc(C#CCCN3CCCCC3)cc2)CC1 [Example 30, 1-[4-(4-Piperidin-1-yl-but-1-ynyl)-benzyl]-piperidine-4-carboxylic acid amide]
30 | 5.5 nM | C(#Cc1ccc(CN2CCOCC2)cc1)CCN1CCCCC1 [Example 24, 4-[4-(4-Piperidin-1-yl-but-1-ynyl)-benzyl]-morpholine]
31 | 0.8 nM | C(#Cc1cccc(CN2CCCCC2)c1)CCN1CCCCC1 [Example 15, 1-[3-(4-Piperidin-1-yl-but-1-ynyl)-benzyl]-piperidine]
32 | 2 nM | C(#Cc1cccc(CN2CCOCCOCCOCC2)c1)CCN1CCCCC1 [Example 50, 10-[3-(4-Piperidin-1-yl-but-1-ynyl)-benzyl]-1,4,7-trioxa-10-aza-cyclododecane]
33 | 0.8 nM | C(#Cc1ccc(CN2CCCC3CCCCC32)cc1)CCN1CCCCC1 (stereo not shown) [Example 29, 1-[4-(4-Piperidin-1-yl-but-1-ynyl)-benzyl]-decahydro-quinoline]
34 | 1.3 nM | CC(C)N1CCN(Cc2ccc(C#CCCN3CCCCC3)cc2)CC1 [Example 39, 1-Isopropyl-4-[4-(4-piperidin-1-yl-but-1-ynyl)-benzyl]-piperazine]
35 | 2 nM | C=CCN(Cc1cccc(C#CCCN2CCCCC2)c1)C1CCCC1 [Example 49, Allyl-cyclopentyl-[3-(4-piperidin-1-yl-but-1-ynyl)-benzyl]-amine]
36 | 3 nM | CCN(CC)C(=O)C1CCCN(Cc2cccc(C#CCCN3CCCCC3)c2)C1 (stereo not shown) [Example 41, 1-[3-(4-Piperidin-1-yl-but-1-ynyl)-benzyl]-piperidine-3-carboxylic acid diethylamide]
37 | 2 nM | C(#Cc1ccc(CN2CCCCC2)cc1)CCN1CCCC1 [Example 18, 1′-[4-(4-Pyrrolidin-1-yl-but-1-ynyl)-benzyl]-piperidine]
38 | 2.4 nM | CCN(CC)CCC#Cc1ccc(CN2CCCCC2)cc1 [Example 19, Diethyl-[4-(4-piperidin-1-ylmethyl-phenyl)-but-3-ynyl]-amine]
39 | 1 nM | C(#Cc1cccc(CN2CCSCC2)c1)CCN1CCCCC1 [Example 48, 4-[3-(4-Piperidin-1-yl-but-1-ynyl)-benzyl]-thiomorpholine]

Same assay, conditions: read-out: Ki

Row | Structure (SMILES) | Ki
40 | O=C1NCN(c2ccccc2)C12CCN(Cc1cccc(C#CCCN3CCCCC3)c1)CC2 [Example 40, 1-Phenyl-8-[3-(4-piperidin-1-yl-but-1-ynyl)-benzyl]-1,3,8-triaza-spiro[4.5]decan-4-one] | 2 nM
